What all share (test): GloSensor cAMP assay
Holding throughout (assay type): cell-based
(In general: cAMP levels reflect the balance of adenylyl cyclase and phosphodiesterase activity.)

One experiment concerns the target T1, ADGRG2-ΔGPS-β N759A (Mus musculus, UniProt Q8CJ12, N773A).
T1 construct: expressed in transfected cells; host or cells: HEK293
As to conditions: mutant N759A; HEK293, cAMP Glosensor. The text has this:
(§1) Wildtype ADGRG2 full-length (ADGRG2-FL) was cloned from mouse total cDNA libraries using the following primers: forward, […]; reverse, […], and then ADGRG2-FL, ADGRG2 C-terminal truncation mutant (ADGRG2-β), and ADGRG2-ΔGPS-β (the entire ECD of ADGRG2 was deleted) were subcloned into the pcDNA3.1 expression vector. The ADGRG2-ΔGPS-β mutants (T610A, Y611A, C614A, S661A, W662A, I663A, L665A, Y666A，N667A, F671A, L679A, L683A, I730A, V731A, F741A, F747A, W757A, I758A, N759A, S760A, V762A, F764A, Y765A, V768A, V769A, F772A, V774A, W824A, F826A, F828A, F829A, V834A, V836A, F838A, M839A, I844A, F845A) were generated using a QuikChange Mutagenesis Kit (Stratagene). All mutations were verified by DNA sequencing.
(§2) The Glosensor cAMP assay was performed as described ([6], [39], [40]). HEK293 cells were transfected with the GloSensor plasmid and the desired expression plasmids in 24-well dishes. Twenty-four hours after transfection, the cells were plated on 96-well plates at a cell density of 20,000 cells/well. The cells were maintained in Dulbecco’s modified Eagle’s medium for another 24 h, washed with PBS, and then incubated with 100 μl of solution containing 10% fetal bovine serum, 2% (v/v) GloSensor cAMP reagent, and 88% CO2-independent medium in each well for 2 h. The cAMP signal was examined using a luminescence counter (Mithras LB 940).

A further experiment concerns the target T2, ADGRG2-ΔGPS-β S661A (Mus musculus, UniProt Q8CJ12, S675A).
T2 construct: expressed in transfected cells; host or cells: HEK293
As to conditions: mutant S661A; HEK293, cAMP Glosensor.
From the text: as §1, §2

In another experiment the target is T3, ADGRG2-ΔGPS-β Y765A (Mus musculus, UniProt Q8CJ12, Y779A).
T3 construct: expressed in transfected cells; host or cells: HEK293
Conditions: mutant Y765A; HEK293, cAMP Glosensor.
From the text: as §1, §2

In another experiment the target is T4, ADGRG2-ΔGPS-β I741A (Mus musculus, UniProt Q8CJ12, I755A).
T4 construct: expressed in transfected cells; host or cells: HEK293
T4 sequence (Q8CJ12 614-1009 I755A): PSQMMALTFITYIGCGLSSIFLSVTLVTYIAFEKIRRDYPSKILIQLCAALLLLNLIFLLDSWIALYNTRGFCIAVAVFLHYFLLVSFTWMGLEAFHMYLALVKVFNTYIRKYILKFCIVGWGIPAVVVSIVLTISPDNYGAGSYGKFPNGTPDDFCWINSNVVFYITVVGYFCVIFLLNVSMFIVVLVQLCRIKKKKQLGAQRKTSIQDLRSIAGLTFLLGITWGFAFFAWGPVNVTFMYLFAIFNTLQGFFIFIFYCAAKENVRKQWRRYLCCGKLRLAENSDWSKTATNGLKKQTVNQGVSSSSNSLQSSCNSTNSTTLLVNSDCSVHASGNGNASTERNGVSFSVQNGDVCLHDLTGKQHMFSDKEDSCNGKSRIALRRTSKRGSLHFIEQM
As to conditions: mutant I741A; HEK293, cAMP Glosensor.
From the text: as §1, §2

The next experiment concerns the target T5, ADGRG2-ΔGPS-β F826A (Mus musculus, UniProt Q8CJ12, F840A).
T5 construct: expressed in transfected cells; host or cells: HEK293
Conditions: mutant F826A; HEK293, cAMP Glosensor.
From the text: as §1, §2

A further experiment concerns the target T6, ADGRG2-ΔGPS-β W757A (Mus musculus, UniProt Q8CJ12, W771A).
T6 construct: expressed in transfected cells; host or cells: HEK293
As to conditions: mutant W757A; HEK293, cAMP Glosensor.
From the text: as §1, §2

The next experiment concerns the target T7, ADGRG2-ΔGPS-β F671A (Mus musculus, UniProt Q8CJ12, F685A).
T7 construct: expressed in transfected cells; host or cells: HEK293
As to conditions: mutant F671A; HEK293, cAMP Glosensor.
From the text: as §1, §2

For a further experiment, the target named is T8, ADGRG2-ΔGPS-β I758A (Mus musculus, UniProt Q8CJ12, I772A).
T8 construct: expressed in transfected cells; host or cells: HEK293
T8 sequence (Q8CJ12 614-1009 I772A): as the sequence (Q8CJ12 614-1009 I755A) above, with A142I, I159A counted along it
Conditions: mutant I758A; HEK293, cAMP Glosensor.
From the text: as §1, §2

The next experiment has as its target T9, ADGRG2-ΔGPS-β C614A (Mus musculus, UniProt Q8CJ12, C628A).
T9 construct: expressed in transfected cells; host or cells: HEK293
Conditions: mutant C614A; HEK293, cAMP Glosensor.
From the text: as §1, §2

The next experiment concerns the target T10, ADGRG2-ΔGPS-β Y666A (Mus musculus, UniProt Q8CJ12, Y680A).
T10 construct: expressed in transfected cells; host or cells: HEK293
Conditions: mutant Y666A; HEK293, cAMP Glosensor.
From the text: as §1, §2

The target in the next experiment is T11, ADGRG2-ΔGPS-β T610A (Mus musculus, UniProt Q8CJ12, T624A).
T11 construct: expressed in transfected cells; host or cells: HEK293
T11 sequence (Q8CJ12 614-1009 T624A): as the sequence (Q8CJ12 614-1009 I755A) above, with T11A, A142I counted along it
Conditions: mutant T610A; HEK293, cAMP Glosensor.
From the text: as §1, §2

Another experiment addresses T12, ADGRG2-ΔGPS-β L665A (Mus musculus, UniProt Q8CJ12, L679A).
T12 construct: expressed in transfected cells; host or cells: HEK293
As to conditions: mutant L665A; HEK293, cAMP Glosensor.
From the text: as §1, §2

The next experiment has as its target T13, ADGRG2-ΔGPS-β W662A (Mus musculus, UniProt Q8CJ12, W676A).
T13 construct: expressed in transfected cells; host or cells: HEK293
As to conditions: mutant W662A; HEK293, cAMP Glosensor.
From the text: as §1, §2

In the next experiment the target is T14, ADGRG2-ΔGPS-β F747A (Mus musculus, UniProt Q8CJ12, F761A).
T14 construct: expressed in transfected cells; host or cells: HEK293
T14 sequence (Q8CJ12 614-1009 F761A): as the sequence (Q8CJ12 614-1009 I755A) above, with A142I, F148A counted along it
As to conditions: mutant F747A; HEK293, cAMP Glosensor.
From the text: as §1, §2

The next experiment deals with T15, ADGRG2-ΔGPS-β V836A (Mus musculus, UniProt Q8CJ12, V850A).
T15 construct: expressed in transfected cells; host or cells: HEK293
T15 sequence (Q8CJ12 614-1009 V850A): as the sequence (Q8CJ12 614-1009 I755A) above, with A142I, V237A counted along it
Conditions: mutant V836A; HEK293, cAMP Glosensor.
From the text: as §1, §2

A further experiment addresses T16, ADGRG2-ΔGPS-β I730A (Mus musculus, UniProt Q8CJ12, I744A).
T16 construct: expressed in transfected cells; host or cells: HEK293
As to conditions: mutant I730A; HEK293, cAMP Glosensor.
From the text: as §1, §2

The target in a further experiment is T17, ADGRG2-ΔGPS-β F772A (Mus musculus, UniProt Q8CJ12, F786A).
T17 construct: expressed in transfected cells; host or cells: HEK293
T17 sequence (Q8CJ12 614-1009 F786A): as the sequence (Q8CJ12 614-1009 I755A) above, with A142I, F173A counted along it
As to conditions: mutant F772A; HEK293, cAMP Glosensor.
From the text: as §1, §2

The target in the next experiment is T18, ADGRG2-ΔGPS-β I663A (Mus musculus, UniProt Q8CJ12, I677A).
T18 construct: expressed in transfected cells; host or cells: HEK293
T18 sequence (Q8CJ12 614-1009 I677A): as the sequence (Q8CJ12 614-1009 I755A) above, with I64A, A142I counted along it
Conditions: mutant I663A; HEK293, cAMP Glosensor.
From the text: as §1, §2

Another experiment concerns the target T19, ADGRG2-ΔGPS-β F838A (Mus musculus, UniProt Q8CJ12, F852A).
T19 construct: expressed in transfected cells; host or cells: HEK293
As to conditions: mutant F838A; HEK293, cAMP Glosensor.
From the text: as §1, §2

The target of the next experiment is T20, ADGRG2-ΔGPS-β L683A (Mus musculus, UniProt Q8CJ12, L697A).
T20 construct: expressed in transfected cells; host or cells: HEK293
T20 sequence (Q8CJ12 614-1009 L697A): as the sequence (Q8CJ12 614-1009 I755A) above, with L84A, A142I counted along it
Conditions: mutant L683A; HEK293, cAMP Glosensor.
From the text: as §1, §2

pEC50: −log10 of the molar value. Non-standard residues stand in square brackets, D forms with d. Residues, ends and D or L forms follow the SMILES beside them. Phe(4-Me) = Cc1ccc(C[C@H](N)C(=O)O)cc1

Data on 1 compound can be found in article PMC7948503, “Optimization of a peptide ligand for the adhesion GPCR ADGRG2 provides a potent tool to explore receptor biology” (The Journal of Biological Chemistry, 2020).

T5 sequence (Q8CJ12 614-1009 F840A): as the sequence (Q8CJ12 614-1009 I755A) above, with A142I, F227A counted along it
T9 sequence (Q8CJ12 614-1009 C628A): as the sequence (Q8CJ12 614-1009 I755A) above, with C15A, A142I counted along it
T1 sequence (Q8CJ12 614-1009 N773A): as the sequence (Q8CJ12 614-1009 I755A) above, with A142I, N160A counted along it
T12 sequence (Q8CJ12 614-1009 L679A): as the sequence (Q8CJ12 614-1009 I755A) above, with L66A, A142I counted along it
T6 sequence (Q8CJ12 614-1009 W771A): as the sequence (Q8CJ12 614-1009 I755A) above, with A142I, W158A counted along it
T2 sequence (Q8CJ12 614-1009 S675A): as the sequence (Q8CJ12 614-1009 I755A) above, with S62A, A142I counted along it
T13 sequence (Q8CJ12 614-1009 W676A): as the sequence (Q8CJ12 614-1009 I755A) above, with W63A, A142I counted along it
T7 sequence (Q8CJ12 614-1009 F685A): as the sequence (Q8CJ12 614-1009 I755A) above, with F72A, A142I counted along it
T10 sequence (Q8CJ12 614-1009 Y680A): as the sequence (Q8CJ12 614-1009 I755A) above, with Y67A, A142I counted along it
T16 sequence (Q8CJ12 614-1009 I744A): as the sequence (Q8CJ12 614-1009 I755A) above, with I131A, A142I counted along it
T19 sequence (Q8CJ12 614-1009 F852A): as the sequence (Q8CJ12 614-1009 I755A) above, with A142I, F239A counted along it

With `CC[C@H](C)[C@H](NC(=O)CNC(=O)[C@H](Cc1ccc(C)cc1)NC(=O)[C@H](CO)NC(=O)[C@@H](N)C(C)C)C(=O)N[C@@H](CC(C)C)C(=O)N[C@@H](CC(C)C)C(=O)N[C@@H](CC(=O)O)C(=O)N[C@@H](CC(C)C)C(=O)N[C@@H](CO)C(=O)N[C@@H](CCCNC(=N)N)C(=O)N[C@H](C(=O)N[C@@H](CO)C(=O)N[C@@H](CC(C)C)C(=O)N1CCC[C@H]1C(=O)O)[C@@H](C)O` [VPM-p15] (H-VS[Phe(4-Me)]GILLDLSRTSLP-OH), the negative-log EC50 (pEC50) was 5.32 at ADGRG2-ΔGPS-β N759A; 5.63 at ADGRG2-ΔGPS-β S661A; 5.97 at ADGRG2-ΔGPS-β Y765A; 5.81 on ADGRG2-ΔGPS-β I741A; 5.18 at ADGRG2-ΔGPS-β F826A; 4.85 at ADGRG2-ΔGPS-β W757A. The pEC50 at ADGRG2-ΔGPS-β F671A was 5.92; at ADGRG2-ΔGPS-β I758A, 4.86; on ADGRG2-ΔGPS-β C614A it was 5.66; on ADGRG2-ΔGPS-β Y666A it was 5.95; on ADGRG2-ΔGPS-β T610A, 5.99; at ADGRG2-ΔGPS-β L665A it was 5.80. In addition, the negative logarithm of the EC50 (pEC50) at ADGRG2-ΔGPS-β W662A is 5.81; on ADGRG2-ΔGPS-β F747A it was 5.95; at ADGRG2-ΔGPS-β V836A, 5.38; on ADGRG2-ΔGPS-β I730A it was 5.88; at ADGRG2-ΔGPS-β F772A, 5.66; on ADGRG2-ΔGPS-β I663A it was 5.92. The figures for the negative-log EC50 (pEC50) on ADGRG2-ΔGPS-β F838A and at ADGRG2-ΔGPS-β L683A were 5.77 and 5.88, respectively.

The pEC50 is the EC50 on a negative log10 scale, so that one unit is a factor of ten. High values mean a low EC50, low ones a high EC50.
